Columns and labels:
Parameters in all cases: scale not given: the % may be the effect or the level left
[1] = target: T1, Serine/threonine-protein kinase haspin (Homo sapiens) (UniProt Q8TF76); assay: Inhibition of human haspin assessed as enzyme activity at 30 uM using Histone H3 as substrate by [gamma-33P]-ATP assay relative to control
T1 sequence (whole entry): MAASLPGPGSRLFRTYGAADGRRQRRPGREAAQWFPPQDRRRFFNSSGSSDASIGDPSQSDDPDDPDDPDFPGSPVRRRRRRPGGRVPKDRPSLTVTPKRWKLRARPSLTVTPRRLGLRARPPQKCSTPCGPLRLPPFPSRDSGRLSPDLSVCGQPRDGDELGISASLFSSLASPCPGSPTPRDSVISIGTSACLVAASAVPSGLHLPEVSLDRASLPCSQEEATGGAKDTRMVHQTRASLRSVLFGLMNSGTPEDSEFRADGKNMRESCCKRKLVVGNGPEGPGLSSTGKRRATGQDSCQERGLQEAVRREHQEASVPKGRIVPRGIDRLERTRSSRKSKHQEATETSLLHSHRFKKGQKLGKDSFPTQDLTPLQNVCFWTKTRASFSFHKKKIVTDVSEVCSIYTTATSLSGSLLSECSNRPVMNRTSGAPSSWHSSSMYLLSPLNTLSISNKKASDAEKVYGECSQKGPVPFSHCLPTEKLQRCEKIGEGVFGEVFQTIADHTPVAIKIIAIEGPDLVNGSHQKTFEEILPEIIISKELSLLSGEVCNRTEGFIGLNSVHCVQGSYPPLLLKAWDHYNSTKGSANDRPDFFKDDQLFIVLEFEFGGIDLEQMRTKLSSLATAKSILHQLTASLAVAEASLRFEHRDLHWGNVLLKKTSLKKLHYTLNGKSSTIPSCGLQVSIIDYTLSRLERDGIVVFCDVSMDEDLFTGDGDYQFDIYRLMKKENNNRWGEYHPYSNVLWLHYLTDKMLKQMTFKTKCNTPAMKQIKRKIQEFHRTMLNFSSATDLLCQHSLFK

[2] = target: T2, Serine/threonine-protein kinase tousled-like 1 (Homo sapiens) (UniProt Q9UKI8); assay: Inhibition of human TLK1 assessed as enzyme activity at 30 uM using Histone H3 as substrate by [gamma-33P]-ATP assay relative to control
T2 sequence (whole entry): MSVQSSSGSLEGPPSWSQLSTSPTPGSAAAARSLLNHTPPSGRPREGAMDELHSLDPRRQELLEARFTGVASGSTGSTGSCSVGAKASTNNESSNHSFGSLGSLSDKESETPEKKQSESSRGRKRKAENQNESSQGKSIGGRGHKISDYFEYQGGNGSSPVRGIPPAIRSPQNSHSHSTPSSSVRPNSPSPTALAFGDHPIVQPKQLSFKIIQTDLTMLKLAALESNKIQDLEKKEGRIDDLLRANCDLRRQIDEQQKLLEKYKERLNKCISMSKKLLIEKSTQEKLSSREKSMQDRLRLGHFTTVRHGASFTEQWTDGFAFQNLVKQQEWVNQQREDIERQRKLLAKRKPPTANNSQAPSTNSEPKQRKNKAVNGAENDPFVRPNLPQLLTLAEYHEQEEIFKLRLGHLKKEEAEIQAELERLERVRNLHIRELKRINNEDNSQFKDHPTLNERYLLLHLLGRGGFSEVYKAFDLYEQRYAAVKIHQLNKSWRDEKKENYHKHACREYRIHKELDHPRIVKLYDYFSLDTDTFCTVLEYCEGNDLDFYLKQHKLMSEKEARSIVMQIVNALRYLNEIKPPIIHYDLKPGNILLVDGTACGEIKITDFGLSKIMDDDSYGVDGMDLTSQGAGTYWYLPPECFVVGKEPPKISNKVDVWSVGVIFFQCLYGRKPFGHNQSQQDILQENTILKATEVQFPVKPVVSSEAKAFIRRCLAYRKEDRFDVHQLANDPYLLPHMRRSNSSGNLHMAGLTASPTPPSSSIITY

[3] = target: Mitogen-activated protein kinase 10 (Homo sapiens) (UniProt P53779); assay: Inhibition of human JNK3 assessed as enzyme activity at 30 uM using ATF2 as substrate by [gamma-33P]-ATP assay relative to control
Mitogen-activated protein kinase 10 (Homo sapiens), sequence (P53779 whole entry): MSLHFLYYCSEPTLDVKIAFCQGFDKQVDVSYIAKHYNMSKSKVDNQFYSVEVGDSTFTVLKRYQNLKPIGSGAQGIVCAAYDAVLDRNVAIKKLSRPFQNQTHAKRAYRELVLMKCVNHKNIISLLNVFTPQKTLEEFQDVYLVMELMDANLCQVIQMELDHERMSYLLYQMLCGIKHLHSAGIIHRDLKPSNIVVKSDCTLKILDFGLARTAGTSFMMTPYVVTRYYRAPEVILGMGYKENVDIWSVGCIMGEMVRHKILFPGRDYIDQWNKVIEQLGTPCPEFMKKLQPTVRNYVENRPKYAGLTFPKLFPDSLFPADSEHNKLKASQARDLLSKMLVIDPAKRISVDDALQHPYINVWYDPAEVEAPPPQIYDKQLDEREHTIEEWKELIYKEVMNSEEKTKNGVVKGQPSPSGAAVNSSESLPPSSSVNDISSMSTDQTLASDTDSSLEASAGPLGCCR

[4] = target: Cyclin-dependent kinase 1/cyclin B1 (Homo sapiens) (UniProt P06493+P14635); assay: Inhibition of human CDK1/cyclinB assessed as enzyme activity at 30 uM using Histone H1 as substrate by [gamma-33P]-ATP assay relative to control; format: protein-complex assay
Cyclin-dependent kinase 1/cyclin B1 (Homo sapiens), sequence (P06493 whole entry, looked up): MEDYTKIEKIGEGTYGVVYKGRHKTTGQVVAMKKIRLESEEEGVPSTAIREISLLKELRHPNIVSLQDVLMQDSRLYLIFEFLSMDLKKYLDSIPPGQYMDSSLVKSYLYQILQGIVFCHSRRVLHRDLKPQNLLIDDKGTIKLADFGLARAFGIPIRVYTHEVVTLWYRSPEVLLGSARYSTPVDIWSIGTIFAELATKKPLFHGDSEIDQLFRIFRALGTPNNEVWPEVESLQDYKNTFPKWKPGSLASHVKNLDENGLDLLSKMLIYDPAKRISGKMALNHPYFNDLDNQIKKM
Cyclin-dependent kinase 1/cyclin B1 (Homo sapiens), sequence (P14635 whole entry, looked up): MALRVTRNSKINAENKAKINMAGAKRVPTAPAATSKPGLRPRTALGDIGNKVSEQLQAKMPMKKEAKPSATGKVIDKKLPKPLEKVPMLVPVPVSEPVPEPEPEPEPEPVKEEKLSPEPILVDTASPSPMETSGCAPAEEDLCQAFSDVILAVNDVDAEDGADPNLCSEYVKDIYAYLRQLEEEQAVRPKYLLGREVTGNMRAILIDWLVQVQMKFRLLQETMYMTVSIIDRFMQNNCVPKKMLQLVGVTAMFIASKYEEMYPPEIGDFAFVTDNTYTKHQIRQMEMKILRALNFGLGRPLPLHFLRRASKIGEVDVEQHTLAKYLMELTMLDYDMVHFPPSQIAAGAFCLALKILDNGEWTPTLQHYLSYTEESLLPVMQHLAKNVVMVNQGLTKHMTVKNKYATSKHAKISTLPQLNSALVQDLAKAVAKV

[5] = target: Mitogen-activated protein kinase 9 (Homo sapiens) (UniProt P45984); assay: Inhibition of human JNK2 assessed as enzyme activity at 30 uM using ATF2 as substrate by [gamma-33P]-ATP assay relative to control
Mitogen-activated protein kinase 9 (Homo sapiens), sequence (P45984 whole entry, looked up): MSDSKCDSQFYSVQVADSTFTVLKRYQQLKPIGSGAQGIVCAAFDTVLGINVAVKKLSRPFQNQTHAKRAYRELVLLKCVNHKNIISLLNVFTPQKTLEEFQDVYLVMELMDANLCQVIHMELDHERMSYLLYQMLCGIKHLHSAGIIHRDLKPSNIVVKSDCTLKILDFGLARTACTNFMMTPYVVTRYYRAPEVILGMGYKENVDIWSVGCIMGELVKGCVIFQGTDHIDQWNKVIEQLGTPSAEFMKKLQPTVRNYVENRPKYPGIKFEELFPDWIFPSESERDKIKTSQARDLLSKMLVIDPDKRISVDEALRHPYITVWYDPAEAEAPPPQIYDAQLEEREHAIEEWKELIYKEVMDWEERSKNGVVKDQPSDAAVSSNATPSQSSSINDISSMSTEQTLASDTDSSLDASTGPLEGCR

## O=C1C=CC2(C=C1)OCC(Cc1cc(C(F)(F)F)cc(C(F)(F)F)c1)C(=O)N2c1ccccc1 (stereo not given)
[1]
  Activity: 66.1 to 66.8%
[2]
  Activity: 57.3 to 58.6%
[3]
  Activity: 70.6 to 73.4%
[4]
  Activity: 45.4 to 46.5%
[5]
  Activity: 57.8 to 58.8%
